Reference: article PMC9945177, “Nature-Derived Epoxy Resin Monomers with Reduced Sensitizing Capacity—Isosorbide-Based Bis-Epoxides” (Chemical Research in Toxicology, 2023)

Key:
Female CBA/Ca mice = assay: murine local lymph node assay (LLNA); format: in vivo
Protocol: Female CBA/Ca mice, 7 to 9 weeks of age, were purchased from NOVA SCB Charles River, Germany. The mice were housed in HEPA-filtered air flow cages and kept on standard laboratory diet and water ad lib. The regional ethics committee, Jordbruksverket, approved the protocol and the procedure was performed in accordance with the guidelines.
A previously published protocol[24] of the LLNA[34] was used to assess the sensitization potential of the isosorbide bis-epoxides 1–3. The purity of the assessed isosorbide bis-epoxides was >99% (GC/MS or LC/MS) before testing of sensitization potential. The isosorbide bis-epoxides were tested in five different concentrations; 1: 3.9 mM (0.10% w/v), 39 mM (1.0% w/v), 190 mM (5.0% w/v), 390 mM (10% w/v), and 770 mM (20% w/v); 2: 21 mM (1.0% w/v), 54 mM (2.5% w/v), 110 mM (5.0% w/v), 210 mM (10% w/v), and 540 mM (25% w/v); and 3: 2.3 mM (0.10% w/v), 23 mM (1.0% w/v), 110 mM (5.0% w/v), 230 mM (10% w/v), and 460 mM (20% w/v). A detailed description is given in Supporting Information.
The three isosorbide bis-epoxides were evaluated for sensitization potential in vivo with the murine LLNA (Figure 2). The stimulation index (SI) is defined as the ratio between the dpm/lymph node for the test group and the control group. Test materials that at one or more concentrations cause an SI greater than 3 are considered positive in the LLNA. The estimated concentration required to induce an SI of 3 (EC3) is used to determine the sensitizing potency of the test compound. […] Isosorbide bis-epoxide 1 gave an EC3 value of 0.17 M (4.4%), 3 gave an EC3 value of 0.36 M (16%), and no EC3 value was obtained for 2 (for full results, see the Supporting Information, Table S1).
A previously published protocol1 of the LLNA2 was used to assess the sensitization potential of the isosorbide bis-epoxides 1-3. The purity of the assessed isosorbide bis-epoxides was >98% according to LC/MS analysis. The isosorbide bis-epoxides were tested in five different concentrations; 1: 3.87 mM […]
456 mM (20% w/v). Briefly, mice in groups of three received 25 µL of test compound dissolved in the vehicle acetone/olive oil (4:1 v/v), on the dorsum of the ears for three consecutive days (day 0, 1, and 2). A sixth group of four mice was treated with vehicle only (control group). On day 5, all mice were injected intravenously via the tail vein with 250 µL of phosphate buffered saline (PBS) (pH 7.4, 137 mM NaCl, 2.7 mM KCl, and 10 mM phosphate buffer) containing 20 µCi [methyl-3H]thymidine. Five hours later the mice were sacrificed, the draining lymph nodes were excised and pooled for each group, followed by preparation of single-cell suspensions of lymph nodes in PBS by using cell strainers (Falcon; BD Labware, Franklin Lakes, NJ, USA; pore size, 70 µm). Cell suspensions were washed twice with PBS, precipitated with trichloroacetic acid (TCA) (5%), and stored at 4 °C overnight. The samples were then centrifuged, resuspended in TCA (5%, 1 mL), and transferred to scintillation cocktail (10 mL) (EcoLume INC Radiochemicals, Solon, OH, USA). The incorporation of [methyl-3H]thymidine into DNA was measured by b-scintillation counting with a Beckman LS 6000TA instrument. Results are expressed as the mean dpm/lymph node for each experimental group and as stimulation index (SI). The SI is defined as the ratio between dpm/lymph node for the test group and the control group. Test materials that at one or more concentrations cause an SI greater than 3 are considered positive in the LLNA. EC3 values (the estimated concentration required to induce an SI of 3) were calculated by linear interpolation.
Results from the Local Lymph Node Assay
Table S1: Full results from the LLNA of bis-epoxides 1-3a
Test Test [3H]thymidine SI EC value

AcPHCKRM = assay: peptide depletion with AcPHCKRM; conditions: peptide 1 mM, test compound 10 mM, DMSO/phosphate buffer pH 7.4 (1:1), room temperature
Protocol: Liquid chromatography-mass spectroscopy (LC-MS) analyses of peptide depletion experiments were performed using electrospray ionization (ESI) on a Hewlett-Packard 1100 HPLC/MS (Agilent Technologies, Waldbronn, Germany). The system included a vacuum degasser, a binary pump, an autoinjector, a column thermostat, a diode array detector, and a single quadrupole mass spectrometer. The high-performance liquid chromatography (HPLC) system was equipped with a HyPURITY C18 column (150 × 3 mm i.d., particle size 3 μm, Thermo Hypersil-Keystone, Thermo Electron Corp., Bellafonte, PA, USA). The mobile phase consisted of 0.005% pentafluoropropanoic acid, 0.1% acetic acid, and 5% acetonitrile in water (solvent A) and 0.005% pentafluoropropanoic acid, 0.1% acetic acid, and 50% water in acetonitrile (solvent B). […] The gradient conditions used were as follows: 0-8% B (0-3 min), 8-10% B (3-15 min), 10-100% B (15-18 min), 100% B (18-30 min), 100-0% B (30-30.1 min), 0% B (30.1-40 min). The ESI interface was used in positive ionization mode with the following spray chamber settings: nebulizer pressure, 35 psi; capillary voltage, 3000 V; drying gas temperature, 350 °C; and drying gas flow rate, 12 L/min. The fragmentor voltage was set to 120 V. The mass spectrometer was used in scan mode detecting molecular ions with m/z values ranging from 50 to 1800. All solvents were degassed with argon prior to use.

[1] = thermogravimetric analysis (TGA) of polymers formed with TETA; format: physicochemical; conditions: polymer cured with TETA, TGA under nitrogen
Protocol: Detailed information on the polymerization procedure and the thermogravimetric analysis (TGA) is given in the Supporting Information.
Pilot experiments using TGA were conducted to investigate the properties of the polymers formed from isosorbide bis-epoxides 1–3 and the commonly used curing agent TETA (Table 2 and Figure 6). The onset of degradation is described by the initial decomposition temperature (IDT) and is an indication of the thermal stability of the cured epoxy resins. The maximum weight loss rate (Rmax) and the temperature (Tmax) at Rmax were taken from the peak values of the thermograms. The activation energies (Ea) for the decomposition of the polymers were calculated from the thermograms based on the Horowitz–Metzger equation.[43],[44]

[2] = estimated concentration required to induce an SI of 3, linear interpolation

- EC3 value (%) (Female CBA/Ca mice; as printed in main text): 4.4%
- EC3 value (Female CBA/Ca mice; [2]): 0.17 M
- EC3 value (% w/v) (Female CBA/Ca mice; [2]): 4.40 % w/v
- SI (Female CBA/Ca mice; test concentration 0.10% w/v): 0.82
- [3H]thymidine incorporation (dpm/lymph node) (Female CBA/Ca mice; test concentration 0.10% w/v): 213 dpm/lymph node
- SI (Female CBA/Ca mice; test concentration 1.0% w/v): 1.41
- [3H]thymidine incorporation (dpm/lymph node) (Female CBA/Ca mice; test concentration 1.0% w/v): 367 dpm/lymph node
- SI (Female CBA/Ca mice; test concentration 5.0% w/v): 3.28
- [3H]thymidine incorporation (dpm/lymph node) (Female CBA/Ca mice; test concentration 5.0% w/v): 852 dpm/lymph node
- SI (Female CBA/Ca mice; test concentration 10% w/v): 12.2
- [3H]thymidine incorporation (dpm/lymph node) (Female CBA/Ca mice; test concentration 10% w/v): 3164 dpm/lymph node
- SI (Female CBA/Ca mice; test concentration 20% w/v): 15.8
- [3H]thymidine incorporation (dpm/lymph node) (Female CBA/Ca mice; test concentration 20% w/v): 4121 dpm/lymph node
- Ea (activation energy for the decomposition of the cured epoxy resins) [1]: 66.9 kcal/mol
- IDT (initial decomposition temperature) [1]: 362 °C
- Rmax (maximum weight loss rate) [1]: –3.24 %/°C
- Tmax (temperature at the maximum rate of weight loss) [1]: 380 °C
SMILES: C1OC1CO[C@H]1CO[C@H]2[C@@H]1OC[C@H]2OCC1CO1 (stereo partly drawn) [Compound 1, (3R,3aR,6S,6aR)-3,6-O-Bis(3,4-epoxypropyl)-1,4:3,6-dianhydro-D-glucitol]
- sensitizing potency classification (Female CBA/Ca mice; classified by EC3): moderate (EC3 > 2%, moderate)
- reactivity with the model peptide AcPHCKRM (AcPHCKRM): highest reactivity
